Experimental data: ChEMBL document CHEMBL5608182, “Synthesis and evaluation of neuroactive steroids with novel pharmacophore at C-21 let identify a compound with advantageous PK profile and higher EC50 and Emax as PAM on GABAA receptor” (Eur J Med Chem, 2024)

Columns and labels:
[1] = Drug concentration in Sprague-Dawley rat brain at 24.4 micromol/kg, IG measured after 2 hrs by LC-MS/MS analysis; format: ADME, tissue-based; settings: in vivo, po, dose 24.4 µmol/kg
[2] = Metabolic stability in Sprague-Dawley rat liver microsomes assessed as intrinsic clearance at 1 uM preincubated for 10 mins followed by NADPH addition by LC-MS analysis; format: ADME, Microsome; settings: read-out: CLH
[3] = molecular target: T1, GABA-A receptor; alpha-1/beta-2/gamma-2 (Homo sapiens, UniProt P14867+P18507+P47870); assay: (§1) Positive allosteric modulation of synaptic alpha1beta2gamma2 GABA-A receptor (unknown origin) transfected in LTK cells assessed as potentiation of GABA-induced peak current amplitude at -80 mV holding potential preincubated for 30 secs followed by GABA stimulation for 2 secs by Q-patch assay; format: cell-based
T1 sequence (P14867 whole entry): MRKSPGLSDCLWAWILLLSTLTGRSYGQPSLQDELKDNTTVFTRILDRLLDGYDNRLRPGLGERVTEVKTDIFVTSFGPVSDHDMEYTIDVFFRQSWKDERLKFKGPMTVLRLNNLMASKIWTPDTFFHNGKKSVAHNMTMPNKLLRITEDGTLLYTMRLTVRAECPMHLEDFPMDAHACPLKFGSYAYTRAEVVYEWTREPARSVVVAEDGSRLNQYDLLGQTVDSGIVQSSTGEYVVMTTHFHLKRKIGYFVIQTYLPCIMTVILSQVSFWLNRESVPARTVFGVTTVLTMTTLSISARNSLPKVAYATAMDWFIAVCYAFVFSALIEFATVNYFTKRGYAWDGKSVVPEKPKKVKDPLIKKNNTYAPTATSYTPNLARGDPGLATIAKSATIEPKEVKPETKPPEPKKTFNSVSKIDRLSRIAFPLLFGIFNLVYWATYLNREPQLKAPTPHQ
T1 sequence (P47870 whole entry): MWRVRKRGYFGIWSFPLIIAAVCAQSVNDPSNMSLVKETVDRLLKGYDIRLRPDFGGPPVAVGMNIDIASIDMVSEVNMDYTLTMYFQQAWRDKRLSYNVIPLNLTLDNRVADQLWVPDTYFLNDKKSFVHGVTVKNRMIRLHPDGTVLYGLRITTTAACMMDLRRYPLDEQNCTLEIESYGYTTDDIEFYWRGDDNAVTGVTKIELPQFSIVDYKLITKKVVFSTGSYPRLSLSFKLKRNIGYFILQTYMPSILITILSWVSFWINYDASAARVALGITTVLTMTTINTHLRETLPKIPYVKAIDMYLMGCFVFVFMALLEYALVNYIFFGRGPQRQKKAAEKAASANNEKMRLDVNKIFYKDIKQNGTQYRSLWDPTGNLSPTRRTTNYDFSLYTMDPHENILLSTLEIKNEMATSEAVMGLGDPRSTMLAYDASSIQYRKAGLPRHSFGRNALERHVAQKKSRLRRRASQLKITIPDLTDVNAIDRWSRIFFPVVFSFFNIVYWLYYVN
T1 sequence (P18507 whole entry): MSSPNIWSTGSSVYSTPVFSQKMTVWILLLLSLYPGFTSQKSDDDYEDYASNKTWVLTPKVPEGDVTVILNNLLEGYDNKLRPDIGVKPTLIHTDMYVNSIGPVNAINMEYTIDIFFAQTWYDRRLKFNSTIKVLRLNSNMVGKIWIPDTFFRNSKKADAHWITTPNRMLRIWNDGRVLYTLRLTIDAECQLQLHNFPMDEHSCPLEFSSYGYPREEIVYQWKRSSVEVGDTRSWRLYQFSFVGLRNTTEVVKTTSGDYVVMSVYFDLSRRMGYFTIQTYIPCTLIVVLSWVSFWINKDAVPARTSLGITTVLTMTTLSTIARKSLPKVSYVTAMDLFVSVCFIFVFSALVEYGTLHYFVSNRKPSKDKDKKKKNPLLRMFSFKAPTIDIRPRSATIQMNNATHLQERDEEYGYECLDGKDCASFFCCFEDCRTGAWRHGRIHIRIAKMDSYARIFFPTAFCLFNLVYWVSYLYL

[4] = Metabolic stability in human liver microsomes assessed as compound remaining at 1 uM preincubated for 10 mins followed by NADPH addition by LC-MS analysis; format: ADME, Microsome; settings: read-out: Stability
[5] = molecular target: Gamma-aminobutyric acid receptor subunit alpha-4/beta3/delta (Homo sapiens, UniProt O14764+P28472+P48169); assay: as §1, with “extrasynaptic alpha4beta3delta” for “synaptic alpha1beta2gamma2”, “CHO” for “LTK”, “manual patch” for “Q-patch”; format: cell-based
[6] = Drug concentration in Sprague-Dawley rat brain at 24.4 micromol/kg, IG measured after 6 hrs by LC-MS/MS analysis; format: ADME, tissue-based; settings: in vivo, po, dose 24.4 µmol/kg
[7] = Drug concentration in Sprague-Dawley rat brain at 24.4 micromol/kg, IG measured after 0.5 hrs by LC-MS/MS analysis; format: ADME, tissue-based; settings: in vivo, po, dose 24.4 µmol/kg
[8] = molecular target: GABA-A receptor; alpha-1/beta-2/gamma-2 (Homo sapiens) (UniProt P14867+P47870+P18507); assay: as §1, with “amplitude by measuring maximal efficacy at 0.01 to 10 uM” for “amplitude”, “assay relative to control” for “assay”; format: cell-based; settings: filed as positive allosteric modulator, dose 0.01-10 µM, time 32.0 sec
[9] = molecular target: Gamma-aminobutyric acid receptor subunit alpha-4/beta3/delta (Homo sapiens) (UniProt P28472+P48169+O14764); assay: Positive allosteric modulation of extrasynaptic alpha4beta3delta GABA-A receptor (unknown origin) transfected in CHO cells assessed as potentiation of GABA-induced peak current amplitude by measuring maximal efficacy at 0.01 to 10 uM at -80 mV holding potential preincubated for 30 secs followed by GABA stimulation for 2 secs by manual patch assay relative to control; format: cell-based; settings: filed as positive allosteric modulator, dose 0.01-10 µM, time 32.0 sec
[10] = Metabolic stability in Sprague-Dawley rat liver microsomes assessed as compound remaining at 1 uM preincubated for 10 mins followed by NADPH addition by LC-MS analysis; format: ADME, Microsome; settings: read-out: Stability
[11] = Metabolic stability in human liver microsomes assessed as intrinsic clearance at 1 uM preincubated for 10 mins followed by NADPH addition by LC-MS analysis; format: ADME, Microsome; settings: read-out: CLH
[12] = molecular target: GABA-A receptor; anion channel; assay: Inhibition of [35S]TBPS binding to GABA-A receptor in Sprague-Dawley rat brain cortical membrane incubated for 90 mins by liquid scintillation spectrometry; format: cell membranes, Cortex

Sequence of Gamma-aminobutyric acid receptor subunit alpha-4/beta3/delta (P28472 whole entry): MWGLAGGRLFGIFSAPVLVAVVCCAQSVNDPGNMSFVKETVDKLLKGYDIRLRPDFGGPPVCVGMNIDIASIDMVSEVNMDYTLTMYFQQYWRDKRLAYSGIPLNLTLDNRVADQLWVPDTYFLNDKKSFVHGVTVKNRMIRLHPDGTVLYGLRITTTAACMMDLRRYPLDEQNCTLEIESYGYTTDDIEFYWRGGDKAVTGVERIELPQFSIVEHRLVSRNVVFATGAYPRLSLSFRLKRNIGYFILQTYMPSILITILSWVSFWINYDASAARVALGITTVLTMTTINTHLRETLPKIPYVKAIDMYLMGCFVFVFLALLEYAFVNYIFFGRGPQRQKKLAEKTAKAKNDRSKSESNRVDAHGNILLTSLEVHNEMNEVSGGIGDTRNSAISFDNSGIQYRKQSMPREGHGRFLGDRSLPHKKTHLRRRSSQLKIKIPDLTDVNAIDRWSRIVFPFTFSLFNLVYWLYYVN
Sequence of Gamma-aminobutyric acid receptor subunit alpha-4/beta3/delta (P48169 whole entry): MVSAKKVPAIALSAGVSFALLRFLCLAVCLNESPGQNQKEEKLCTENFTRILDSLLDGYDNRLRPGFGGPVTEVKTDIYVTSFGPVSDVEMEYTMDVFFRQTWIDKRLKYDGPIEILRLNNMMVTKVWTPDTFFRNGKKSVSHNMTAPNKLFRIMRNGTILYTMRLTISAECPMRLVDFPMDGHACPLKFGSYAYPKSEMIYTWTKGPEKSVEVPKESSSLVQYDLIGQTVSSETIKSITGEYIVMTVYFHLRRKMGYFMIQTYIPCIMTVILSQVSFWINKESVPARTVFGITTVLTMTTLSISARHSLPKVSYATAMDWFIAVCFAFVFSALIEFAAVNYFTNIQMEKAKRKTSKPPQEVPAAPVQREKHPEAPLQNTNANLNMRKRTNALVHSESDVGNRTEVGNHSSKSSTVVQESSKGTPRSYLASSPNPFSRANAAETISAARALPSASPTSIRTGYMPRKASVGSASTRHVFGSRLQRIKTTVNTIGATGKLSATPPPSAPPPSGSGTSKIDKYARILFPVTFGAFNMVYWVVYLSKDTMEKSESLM
Sequence of Gamma-aminobutyric acid receptor subunit alpha-4/beta3/delta (O14764 whole entry): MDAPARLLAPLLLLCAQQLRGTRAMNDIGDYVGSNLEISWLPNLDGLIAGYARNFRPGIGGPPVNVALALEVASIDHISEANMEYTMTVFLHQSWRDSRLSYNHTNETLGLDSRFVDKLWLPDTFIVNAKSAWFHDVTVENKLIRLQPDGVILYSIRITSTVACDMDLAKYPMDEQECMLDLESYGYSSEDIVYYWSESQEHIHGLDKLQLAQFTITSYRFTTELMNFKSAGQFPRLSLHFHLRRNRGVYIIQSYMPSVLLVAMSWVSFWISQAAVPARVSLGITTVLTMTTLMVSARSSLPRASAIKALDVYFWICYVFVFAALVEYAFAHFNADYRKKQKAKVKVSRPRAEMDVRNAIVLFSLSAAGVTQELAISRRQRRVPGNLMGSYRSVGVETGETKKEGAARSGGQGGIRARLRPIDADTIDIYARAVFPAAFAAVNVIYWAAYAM

Structure (SMILES) | Ct [1] | CLint scaled at 1 µM [2] | EC50 [3] | remaining at 1 µM [4] | EC50 [5] | Ct [6] | Ct [7] | Emax [8] | Emax [9] | remaining at 1 µM [10] | CLint scaled at 1 µM [11] | IC50 [12] | Ct ([1]; BLD = below limit of detection) | Ct ([6]; BLD = below limit of detection)
C[C@@]1(O)CC[C@H]2[C@H](CC[C@@H]3[C@@H]2CC[C@]2(C)[C@@H](C(=O)Cn4cnn(-c5ccnc(F)c5)c4=O)CC[C@@H]32)C1 | 1188 nmol/kg | 69 mL/min/kg | 109 nM | 48.1% | 56 nM | 764 nmol/kg | 708 nmol/kg | 775% | 913% | 32.2% | 23 mL/min/kg |  |  | 
C[C@@]1(O)CC[C@H]2[C@H](CC[C@@H]3[C@@H]2CC[C@]2(C)[C@@H](C(=O)Cn4cnn(-c5cccc(F)c5)c4=O)CC[C@@H]32)C1 | 1530 nmol/kg | 44 mL/min/kg | 56 nM | 89% | 10 nM | 792 nmol/kg | 1708 nmol/kg | 566% | 440% | 44.5% | 3.9 mL/min/kg | 1.2 nM |  | 
C[C@@]1(O)CC[C@H]2[C@H](CC[C@@H]3[C@@H]2CC[C@]2(C)[C@@H](C(=O)Cn4nnn(-c5cccc(F)c5)c4=O)CC[C@@H]32)C1 |  | 105 mL/min/kg | 37 nM | 70% | 23 nM |  | 948 nmol/kg | 1120% | 602% | 15.6% | 11 mL/min/kg | 1 nM | Bld | Bld
